Laboratory results as given in patent US20260176254A1, “INHIBITORS OF PROSTATE SPECIFIC MEMBRANE ANTIGEN AND USE THEREOF” (SHANGHAI SINOTAU BIOTECH. CO., LTD, priority 2023, published 2026).
pIC50: −log10 of the molar value.

Assays:
[1] = target: T1, recombinant human PSMA (rhPSMA) (Homo sapiens, UniProt Q04609); experiment: Naaladase assay (fluorescence-based Naaladase activity inhibition); format: biochemical; details: rhPSMA 0.4 μg/mL, substrate N-Acetyl-Asp-Glu 40 μM, 37° C. one hour
T1 construct: purchased Sino Biological
T1 sequence (Q04609 whole entry): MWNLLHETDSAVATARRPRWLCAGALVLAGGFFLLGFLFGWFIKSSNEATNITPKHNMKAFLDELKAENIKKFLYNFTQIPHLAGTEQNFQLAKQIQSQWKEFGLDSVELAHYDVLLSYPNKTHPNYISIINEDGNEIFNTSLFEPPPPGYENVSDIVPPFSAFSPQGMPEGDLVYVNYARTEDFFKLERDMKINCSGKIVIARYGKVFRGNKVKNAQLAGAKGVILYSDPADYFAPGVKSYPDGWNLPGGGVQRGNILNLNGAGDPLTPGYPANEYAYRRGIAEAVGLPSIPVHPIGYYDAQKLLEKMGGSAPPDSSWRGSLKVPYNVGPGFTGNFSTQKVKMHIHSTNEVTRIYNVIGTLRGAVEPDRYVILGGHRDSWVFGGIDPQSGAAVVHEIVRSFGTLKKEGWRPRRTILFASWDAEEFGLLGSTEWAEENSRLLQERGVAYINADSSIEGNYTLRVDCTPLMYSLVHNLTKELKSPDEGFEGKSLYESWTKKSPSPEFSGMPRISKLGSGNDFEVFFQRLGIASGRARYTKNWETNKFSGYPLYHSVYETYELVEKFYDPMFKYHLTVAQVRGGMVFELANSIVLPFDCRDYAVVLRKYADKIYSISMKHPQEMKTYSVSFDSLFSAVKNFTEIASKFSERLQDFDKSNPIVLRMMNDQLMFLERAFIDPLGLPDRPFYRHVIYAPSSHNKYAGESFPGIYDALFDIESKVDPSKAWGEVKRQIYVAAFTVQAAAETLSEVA
Method: Naaladase activity inhibition was determined using a fluorescence-based assay. Briefly, the solution containing the substrate N-Acetyl-Asp-Glu (Sigma-Aldrich) at 40 μM and the compound at concentrations from 0.15 nM to 1000 nM was mixed at equal volume with recombinant human PSMA (rhPSMA, Sino Biological) at 0.4 μg/mL, in assay buffer (50 mM HEPES, 100 mM NaCl, pH 7.5). The enzymatic reaction was proceeded by incubation at 37° C. for one hour and then stopped by heating at 95° C. for 5 minutes. A solution of 15 mM ortho-phthaldialdehyde (Sigma-Aldrich) was added to all vials and incubated for 10 min at ambient temperature. The reaction solutions were loaded onto a 96-well flat clear bottom black microplates (Corning) and read at excitation and emission wavelengths of 330 and 450 nm, respectively, using a microplate reader (Tecan). The data were analyzed by a one-site total binding regression algorithm of GraphPad Prism (GraphPad Software).

[2] = system: LNCaP cells; experiment: Cell uptake assay of 177Lu-labeled compound; format: cell-based; details: for Membrane (%): cell membrane fraction; for Intracellular (%): intracellular fraction
Method: LNCaP (ATCC) cells were cultured in RPMI 1640 medium (Gibco) containing 10% fetal bovine serum (FBS) (Gibco), in 5% carbon dioxide (CO2), at 37.0° C. in a humidified incubator. 2×10^5 LNCaP cells/well were seeded in a 24-well plate the day before experiment. 7.4 KBq (200 nCi) of ^177Lu-labeled compound was added into each well, and then incubated in 37° C., 5% CO2 incubator for varying durations. At each time point, the supernatant, cell membrane and intracellular fractions were collected. The cell membrane fraction was recovered by incubating cells with buffer containing 50 mM glycine and 100 mM NaCl, pH 2.7 for 10 minutes at 37° C., while the intracellular fraction was recovered from cells treated with 1M NaOH. Activity of ^177Lu-labelled compound in every component was detected by gamma counter.

Question: With O=C(O)CCC[C@H](NC(=O)N[C@@H](CCCCNC(=O)[C@H](Cc1c2ccccc2cc2ccccc12)Nc1c(Nc2ccc3c(c2)CCN(C(=O)CN2CCN(CC(=O)O)CCN(CC(=O)O)CCN(CC(=O)O)CC2)C3)c(=O)c1=O)C(=O)O)C(=O)O [E14] as the molecule, how does the pIC50 [1] read?
Answer: The pIC50 was 8.77.

Question: What about the “Membrane (%)” value ([2]; 1 hr) of the same molecule?
Answer: Its value is 9.7%.

Question: What about the “Membrane (%)” value ([2]; 4 hr) of the same molecule?
Answer: Its value is 14.8%.

Question: What about the “Membrane (%)” value ([2]; 24 hr) of the same molecule?
Answer: The value was 12.9%.

Question: What about the “Intracellular (%)” value ([2]; 1 hr) of the same molecule?
Answer: Its value is 7.9%.

Question: And the “Intracellular (%)” value ([2]; 4 hr)?
Answer: The value was 25.1%.

Question: What about the “Intracellular (%)” value ([2]; 24 hr) of the same molecule?
Answer: Its value is 49.5%.

Question: With O=C(O)CC[C@H](NC(=O)N[C@@H](CCCCNC(=O)[C@H](Cc1c2ccccc2cc2ccccc12)Nc1c(NC23CCC(NC(=O)CN4CCN(CC(=O)O)CCN(CC(=O)O)CCN(CC(=O)O)CC4)(CC2)CC3)c(=O)c1=O)C(=O)O)C(=O)O [E15] as the molecule, how does the pIC50 [1] read?
Answer: The pIC50 was 9.10.

Question: And the “Membrane (%)” value ([2]; 1 hr)?
Answer: The value was 14.1%.

Question: And the “Membrane (%)” value ([2]; 4 hr)?
Answer: Its value is 27.3%.

Question: And the “Membrane (%)” value ([2]; 24 hr)?
Answer: Its value is 23.8%.

Question: What about the “Intracellular (%)” value ([2]; 1 hr) of the same molecule?
Answer: The value was 9.6%.

Question: And the “Intracellular (%)” value ([2]; 4 hr)?
Answer: The value was 30.4%.

Question: And the “Intracellular (%)” value ([2]; 24 hr)?
Answer: Its value is 58.4%.

Question: What does the source list for O=C(O)CCC[C@H](NC(=O)N[C@@H](CCNC(=O)[C@H](Cc1c2ccccc2cc2ccccc12)NC(=O)[C@H]1CC[C@H](CNC(=O)CN2CCN(CC(=O)O)CCN(CC(=O)O)CCN(CC(=O)O)CC2)CC1)C(=O)O)C(=O)O [HTK03149, reference compound]?
Answer: pIC50 [1]: 8.80; Membrane (%) ([2]; 1 hr): 2.9%; Membrane (%) ([2]; 4 hr): 3.8%; Membrane (%) ([2]; 24 hr): 5.7%; Intracellular (%) ([2]; 1 hr): 2.8%; Intracellular (%) ([2]; 4 hr): 7.4%; Intracellular (%) ([2]; 24 hr): 19.3%

Question: O=C(O)CC[C@H](NC(=O)N[C@@H](CCCCNC(=O)[C@H](Cc1ccc2ccccc2c1)NC(=O)[C@H]1CC[C@H](CNC(=O)CN2CCN(CC(=O)O)CCN(CC(=O)O)CCN(CC(=O)O)CC2)CC1)C(=O)O)C(=O)O [PSMA-617, reference compound] was tested. Which pIC50 [1] did it give?
Answer: Its pIC50 is 8.62.

Question: What about the “Membrane (%)” value ([2]; 1 hr) of the same molecule?
Answer: Its value is 2.1%.

Question: What about the “Membrane (%)” value ([2]; 4 hr) of the same molecule?
Answer: Its value is 4.8%.

Question: What about the “Membrane (%)” value ([2]; 24 hr) of the same molecule?
Answer: The value was 4.7%.

Question: And the “Intracellular (%)” value ([2]; 1 hr)?
Answer: The value was 3.0%.

Question: What about the “Intracellular (%)” value ([2]; 4 hr) of the same molecule?
Answer: The value was 9.5%.

Question: And the “Intracellular (%)” value ([2]; 24 hr)?
Answer: The value was 22.4%.
